Assay results published in US4048299A, “Anticaries confectionaries and oral health products” (William Wrigley, Jr. Co., priority 1970, dated 1977).

Key:
[1] = system: Lactobacillus casei and Streptococcus sp. FA-1; assay: Acid-production inhibition by broth-tube assay, 0.1 percent of compound; type: cell-based; settings: for Activity, Acid-Production Inhibition, %: Table XII, 0.1% of compound; for inhibition at 0.1 %: Table X, 0.1 percent of compound, read-out: Activity, Acid-Production Inhibition%
Method: ^(a) Activity was measured by broth-tube assay to determine percent
(§1) acid-production inhibition obtained by Lactobacillus casei and
Streptococcus sp. FA-1 in the presence of 0.1 percent of compound.
^(a) Activity was measured by broth-tube assay to determine percent o
as §1
Streptococcus sp. FA-1 in the presence of 0.1% of compound. Symbols

[2] = In vivo caries evaluation, Osborne-Mendel strain 2 rat; design: species or system rat (Osborne-Mendel strain 2); Caries Score, Mean Incidence / Caries Score, Mean Extent: scale not given here; settings: Table I, 91 days
Excerpt: (§2) Standard laboratory techniques were used to complie the data presented. In each case the aldehyde was incorporated into each specimen's food in a one percent, by weight, quantity, over a period of several weeks. In all cases, caries reduction was noted.
(§3) The aldehydes tested in vivo were pyruvaldehyde, d,1-glyceraldehyde, crystalline dimer, glycolaldehyde, octanaldehyde, nonanaldehyde, decanaldehyde, undecylenic aldehyde, and lauric aldehyde. The polyaldehydes tested were dialdehyde starch, dialdehyde starch 50 percent oxidized, dialdehyde starch 90 percent oxidized, and dialdehyde galactomannan gum.
(§4) ^(a) Agents were incorporated in the diet at a 1 percent level.

L. casei = assay: Growth inhibition of oral microorganisms in vitro, pour plates; type: cell-based, Lactobacillus casei; settings: Table IX; for Bacterial Population, Experimental: control 8 × 10^8 to 1 × 10^9; for Inhibition (growth): pour plates incubated 48 - 72 hours
Method: (§5) (a)Determined on freshly grown pure cultures. Pour plates were incubated

Streptococcus spp. FA-1 = assay: as above; type: cell-based; settings: Table IX; for Bacterial Population, Experimental: control 2 × 10^8 to 5 × 10^8; for Inhibition (growth): pour plates incubated 48 - 72 hours
Method: as §5

[3] = In vivo caries evaluation, Osborne-Mendel strain 1 rat; design: species or system rat (Osborne-Mendel strain 1); Caries Score, Mean Incidence / Caries Score, Mean Extent: scale not given here; settings: Table II, 90 days; for Caries Score, Mean Incidence / Caries Score, Mean Extent: 1 percent in diet; for Caries Score, Mean Incidence: RCD control 19.0 (octan-), 14.1 (nonan-), 17.6 (decan-), 22.3 (undecylenic); for Caries Score, Mean Extent: RCD control 49.6 (octan-), 34.3 (nonan-), 46.0 (decan-), 54.6 (undecylenic); for Caries Extent Reduction, statistical evaluation / Caries Incidence Reduction, statistical evaluation: Student's test, 95 percent confidence limit
Excerpt: as §2, §3, §4

[4] = In vivo caries evaluation, laboratory animals (summary); settings: one percent level in diet
Excerpt: as §2, §3

[5] = Student's test, 95 percent confidence limit

Structure (SMILES)	Activity, Acid-Production Inhibition, % [1]	inhibition at 0.1 % [1] [%]	Bacterial Population, Experimental (L. casei)	Inhibition (growth) (L. casei) [%]	Bacterial Population, Experimental (Streptococcus spp. FA-1)	Inhibition (growth) (Streptococcus spp. FA-1) [%]	also measured
O=CCCCC(O)C=O (stereo not drawn) [2-Hydroxyadipaldehyde]	+ (25 to 74)	–	–	–	–	–	–
CC(C)=CCCC(C)=CC=O [Citral]	–	99 to 100	–	–	–	–	–
OCC1OC(O)C(CO)OC1O (stereo not drawn) [Glyceraldehyde, crystalline dimer]	–	–	–	–	–	–	Caries Score, Mean Incidence ([2]; 1 percent in diet, L-2000 control 23.5): 15.0; Caries Score, Mean Extent ([2]; 1 percent in diet, L-2000 control 51.0): 29.4; Caries Extent Reduction, statistical evaluation [2, 5]: Significant; Caries Incidence Reduction, statistical evaluation [2, 5]: Significant
O=CC=O [Glyoxal]	++++ (99 to 100)	–	–	–	–	–	–
O=CC(=O)C=O [Mesoxalic dialdehyde]	–	–	–	–	–	–	Activity, Acid-Production Inhibition, % ([1]; confirmation of purity and structure lacking, actual activity could be much higher): + (25 to 74)
CCCCCCCCCC(C)C=O (stereo not drawn) [Methylnonylacetaldehyde]	–	90 to 98	< 1 × 10^3	> 99.99	0	100	–
CCCCCCCCC=O [Nonanaldehyde]	–	99 to 100	4 × 10^4	> 99.99	0	100	Caries Score, Mean Incidence [3]: 5.1; Caries Score, Mean Extent [3]: 10.2; Caries Extent Reduction, statistical evaluation [3]: Significant; Caries Incidence Reduction, statistical evaluation [3]: Significant; Anticaries effect in laboratory animals [4]: significant anticaries activity
O=CCCC=O [Succinic dialdehyde]	++++ (99 to 100)	–	–	–	–	–	–
CC=CCCCCCCCC=O [Undecylenic aldehyde]	–	99 to 100	1 × 10^2	> 99.99	0	100	Caries Score, Mean Incidence [3]: 7.4; Caries Score, Mean Extent [3]: 16.4; Caries Extent Reduction, statistical evaluation [3]: Significant; Caries Incidence Reduction, statistical evaluation [3]: Significant; Anticaries effect in laboratory animals [4]: significant anticaries activity
CCCCCCCCCCC=O [Undecylic aldehyde]	–	99 to 100	5 × 10^4	> 99.99	2 × 10^3	> 99.99	–
